According to ChEMBL document CHEMBL1201862, “PubChem BioAssay data set” (2004):
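Protocol summary: plate cells (96-well), add compound at 5 concentrations, incubate 48 h, interpolate endpoints linearly. GI50 = concentration required for 50% inhibition of growth.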 Active and inactive are the calls of the source. No stated cut-off is given here; in the data, active = GI50 up to about 1.1 µM and inactive = higher.

Tests used:
Experiment in all cases: inhibition of tumour cell growth, NCI panel, 48 h
TK-10 = tested on: TK-10
SK-OV-3 = tested on: SK-OV-3
HT-29 = tested on: HT-29
UACC-62 = tested on: UACC-62
SW-620 = tested on: SW-620
M14 = tested on: M14
EKVX = tested on: EKVX
SK-MEL-5 = tested on: SK-MEL-5
ACHN = tested on: ACHN
HCT-116 = tested on: HCT-116
OVCAR-3 = tested on: OVCAR-3
OVCAR-5 = tested on: OVCAR-5
CAKI-1 = tested on: CAKI-1
Malme-3M = tested on: Malme-3M
LOX IMVI = tested on: LOX IMVI
UACC-257 = tested on: UACC-257
OVCAR-4 = tested on: OVCAR-4
T47D = tested on: T47D
HOP-62 = tested on: HOP-62
SNB-75 = tested on: SNB-75

| SMILES | GI50 (TK-10) | GI50 (SK-OV-3) | GI50 (HT-29) | GI50 (UACC-62) | GI50 (SW-620) | GI50 (M14) | GI50 (EKVX) | GI50 (SK-MEL-5) | GI50 (ACHN) | GI50 (HCT-116) | GI50 (OVCAR-3) | GI50 (OVCAR-5) | GI50 (CAKI-1) | GI50 (Malme-3M) | GI50 (LOX IMVI) | GI50 (UACC-257) | GI50 (OVCAR-4) | GI50 (T47D) | GI50 (HOP-62) | GI50 (SNB-75) |
| --- | --- | --- | --- | --- | --- | --- | --- | --- | --- | --- | --- | --- | --- | --- | --- | --- | --- | --- | --- | --- |
| CCCCc1ccc(Nc2nc(S)c3[nH]cnc3n2)cc1 | 20.6 µM (inactive) | > 10 µM (inactive) | 10.3 µM (inactive) | 18.5 µM (inactive) | 15.4 µM (inactive) | 24.2 µM (inactive) | > 10 µM (inactive) | 12.5 µM (inactive) | 23.1 µM (inactive) | 25.5 µM (inactive) | 16.1 µM (inactive) | 17.2 µM (inactive) | 34.5 µM (inactive) | 22 µM (inactive) | 17.5 µM (inactive) | 21.6 µM (inactive) | 23.9 µM (inactive) | 15.6 µM (inactive) |  |  |
| Cc1cccc2c1Oc1cc(Cl)ccc1C2NC(=O)CCN1CCN(CCO)CC1 (centres undefined) | > 10 µM (inactive) | 25.9 µM (inactive) | 15 µM (inactive) | 5.66 µM (inactive) | 18.3 µM (inactive) | 15.5 µM (inactive) | 20.8 µM (inactive) | 14 µM (inactive) |  | 18.6 µM (inactive) | 17.7 µM (inactive) | 21.1 µM (inactive) |  |  | 2.75 µM (inactive) | 16.6 µM (inactive) | 16 µM (inactive) | 17.4 µM (inactive) | 17.2 µM (inactive) | 4.61 µM (inactive) |
| CCn1c(-c2ccc(F)cc2)nc2c1C(=O)c1ccccc1C2=O | > 100 µM (inactive) | 20.7 µM (inactive) | 75.5 µM (inactive) | > 100 µM (inactive) | > 100 µM (inactive) | 71 µM (inactive) | > 100 µM (inactive) | > 100 µM (inactive) | > 100 µM (inactive) | > 100 µM (inactive) | 33.8 µM (inactive) | > 100 µM (inactive) |  | 45.1 µM (inactive) |  | > 100 µM (inactive) | > 100 µM (inactive) | > 100 µM (inactive) | > 100 µM (inactive) | > 100 µM (inactive) |
| Cc1ccc(C2=CC(=O)OC(C[P+](c3ccccc3)(c3ccccc3)c3ccccc3)(c3ccccc3)O2)cc1 (centres undefined) | 20.1 µM (inactive) | 18.2 µM (inactive) | 14.7 µM (inactive) | 14.8 µM (inactive) |  | 17 µM (inactive) | 15.3 µM (inactive) | 15.4 µM (inactive) | 21.3 µM (inactive) | 14.5 µM (inactive) | 16.4 µM (inactive) | 23.2 µM (inactive) | 15.4 µM (inactive) | 16.1 µM (inactive) |  | 16.9 µM (inactive) | 16.4 µM (inactive) | 20.6 µM (inactive) | 19.5 µM (inactive) | 21.3 µM (inactive) |
| CCOC(=O)c1cc(C2(OC)CCN(Cc3ccccc3)C2=O)c(-c2cc(C)no2)[nH]1 (centres undefined) | > 100 µM (inactive) | > 100 µM (inactive) | 75.7 µM (inactive) | > 100 µM (inactive) | > 100 µM (inactive) | > 100 µM (inactive) | 93.1 µM (inactive) | 97.1 µM (inactive) | > 100 µM (inactive) | > 100 µM (inactive) | > 100 µM (inactive) | > 100 µM (inactive) | > 100 µM (inactive) | > 100 µM (inactive) |  | > 100 µM (inactive) | > 100 µM (inactive) | > 100 µM (inactive) | > 100 µM (inactive) | > 100 µM (inactive) |
| CSC1=N[C@H](c2ccccc2)CS1 | > 100 µM (inactive) |  | > 100 µM (inactive) | > 100 µM (inactive) | > 100 µM (inactive) | > 100 µM (inactive) | > 100 µM (inactive) | > 100 µM (inactive) | > 100 µM (inactive) | > 100 µM (inactive) | > 100 µM (inactive) | > 100 µM (inactive) | > 100 µM (inactive) |  |  | > 100 µM (inactive) | > 100 µM (inactive) | > 100 µM (inactive) | > 100 µM (inactive) | 2.8 µM (inactive) |
| CCOC(=O)c1c(-c2ccccc2)nc2ccccc2c1O | > 100 µM (inactive) | > 100 µM (inactive) | > 100 µM (inactive) |  | > 100 µM (inactive) | > 100 µM (inactive) | > 100 µM (inactive) | > 100 µM (inactive) | > 100 µM (inactive) | > 100 µM (inactive) |  | > 100 µM (inactive) | > 100 µM (inactive) | > 100 µM (inactive) |  | > 100 µM (inactive) | > 100 µM (inactive) | > 100 µM (inactive) | > 100 µM (inactive) | > 100 µM (inactive) |
| COC(=O)C1(C(=O)OC)N=C(C)OC1C(C)C (centres undefined) | > 100 µM (inactive) | > 100 µM (inactive) |  |  | > 100 µM (inactive) | > 100 µM (inactive) | > 100 µM (inactive) | > 100 µM (inactive) | > 100 µM (inactive) | > 100 µM (inactive) | > 100 µM (inactive) | > 100 µM (inactive) | > 100 µM (inactive) |  | > 100 µM (inactive) | > 100 µM (inactive) | > 100 µM (inactive) | > 100 µM (inactive) | > 100 µM (inactive) | > 100 µM (inactive) |
| CO[C@@H]1C[C@H]2[C@@H]3CC[C@H]([C@@H](C)CO)[C@@]3(C)CC[C@@H]2[C@@]2(C)CC[C@H]3C[C@]312 | > 100 µM (inactive) |  | 18.5 µM (inactive) |  | 31.9 µM (inactive) | 23.3 µM (inactive) | 27.2 µM (inactive) | 16.7 µM (inactive) | 26.5 µM (inactive) | 34.4 µM (inactive) | 45.1 µM (inactive) | > 100 µM (inactive) | 89.7 µM (inactive) | 19.5 µM (inactive) | 19.3 µM (inactive) | 34 µM (inactive) | 33.2 µM (inactive) | 20 µM (inactive) | 46.8 µM (inactive) | 74.3 µM (inactive) |
| O=C(CP(c1ccccc1)c1ccccc1)c1cccc(C(=O)CP(c2ccccc2)c2ccccc2)c1 | > 100 µM (inactive) | > 100 µM (inactive) | 8.2 µM (inactive) | 78.3 µM (inactive) | > 100 µM (inactive) | 52.6 µM (inactive) | 56.9 µM (inactive) | 23.4 µM (inactive) | 84.1 µM (inactive) | 36.8 µM (inactive) |  | > 100 µM (inactive) | 86.3 µM (inactive) |  |  | 32.1 µM (inactive) | 26.1 µM (inactive) | 14.2 µM (inactive) | 96.6 µM (inactive) | 55.6 µM (inactive) |
| CC1=Nc2c(ccc3c2C(=O)c2ccccc2C3=O)NC(c2cccc3c2CCC3)C1 (centres undefined) | > 100 µM (inactive) | > 31 µM (inactive) | > 100 µM (inactive) | > 100 µM (inactive) | > 100 µM (inactive) | > 92 µM (inactive) | > 100 µM (inactive) | > 100 µM (inactive) | 25.3 µM (inactive) | 66.2 µM (inactive) | > 90.4 µM (inactive) | > 100 µM (inactive) | 6.27 µM (inactive) | > 100 µM (inactive) | 24.2 µM (inactive) | > 100 µM (inactive) | > 100 µM (inactive) |  | > 73.8 µM (inactive) | > 100 µM (inactive) |
| Cc1ccc(C(=O)Nc2ccc(S(=O)(=O)O)c3cc(S(=O)(=O)O)cc(S(=O)(=O)O)c23)cc1NC(=O)c1cccc(N)c1 | > 100 µM (inactive) | > 100 µM (inactive) | > 100 µM (inactive) | > 100 µM (inactive) | > 100 µM (inactive) | > 100 µM (inactive) | > 100 µM (inactive) | > 100 µM (inactive) | > 100 µM (inactive) |  | > 100 µM (inactive) | > 100 µM (inactive) | > 100 µM (inactive) | 1.05 µM (active) |  | > 100 µM (inactive) | > 100 µM (inactive) | > 100 µM (inactive) | > 100 µM (inactive) | > 100 µM (inactive) |
| C=CC[C@]12C=C(OC)[C@@H](O)[C@](OC)(C(c3cc(OC)c4c(c3)OCO4)[C@H]1C)[C@H]2OC(C)=O (some centres undefined) | > 100 µM (inactive) | 61.1 µM (inactive) | > 100 µM (inactive) | > 100 µM (inactive) | > 100 µM (inactive) | > 100 µM (inactive) | > 100 µM (inactive) | > 100 µM (inactive) | > 100 µM (inactive) | > 100 µM (inactive) | > 100 µM (inactive) | > 100 µM (inactive) | > 100 µM (inactive) | > 100 µM (inactive) |  | > 100 µM (inactive) | 69.2 µM (inactive) | > 100 µM (inactive) | > 100 µM (inactive) | 40.7 µM (inactive) |
| Cc1cc(=O)oc2c(CN3CCCCC3)c(O)ccc12 | > 100 µM (inactive) |  | > 100 µM (inactive) | > 100 µM (inactive) | > 100 µM (inactive) | > 100 µM (inactive) | > 100 µM (inactive) | > 100 µM (inactive) | > 100 µM (inactive) | > 100 µM (inactive) | > 100 µM (inactive) | > 100 µM (inactive) | > 100 µM (inactive) | > 100 µM (inactive) | > 100 µM (inactive) | > 100 µM (inactive) | > 100 µM (inactive) | > 100 µM (inactive) | > 100 µM (inactive) | > 100 µM (inactive) |
| Cc1cc(=O)oc2c(C)c(O)ccc12 |  |  | > 100 µM (inactive) | 99.3 µM (inactive) | > 100 µM (inactive) | > 100 µM (inactive) | > 100 µM (inactive) | > 100 µM (inactive) | > 100 µM (inactive) | > 100 µM (inactive) | > 100 µM (inactive) | > 100 µM (inactive) | 55.6 µM (inactive) | > 100 µM (inactive) | > 100 µM (inactive) | > 100 µM (inactive) | > 100 µM (inactive) | > 100 µM (inactive) | > 100 µM (inactive) | > 100 µM (inactive) |
